According to patent US11549147B2, “Treatment of atopic dermatitis with tradipitant” (VANDA PHARMACEUTICALS INC., priority 2017, dated 2023):

Test system: treatment-resistant pruritus associated with atopic dermatitis, high or low baseline IgE
Test: Exploratory analysis of study NCT02651714 by baseline IgE level (Example 4)
Type: in vivo, human
Design: Average Itch NRS / Average Itch NRS, Diff / Sleep Disturbance / Extension / Excoriations, Diff / Erythema / Skin dryness / Skin dryness, Diff / Itch / Itch, Diff / Insomnia / Insomnia, Diff / CGIC / CGIC, Diff / VRS / VRS, Diff / Average Itch VAS / Average Itch VAS, Diff / worst Itch VAS, Diff: scale not given here
Conditions: 85 mg bid; for Average Itch NRS, Diff / Average Itch VAS, Diff / CGIC, Diff / EASI, Diff / Erythema, Diff / Excoriations, Diff / Extension, Diff / Insomnia, Diff / Intensity, Diff / Itch, Diff / Lichenification, Diff / Log EASI, Diff / Objective SCORAD, Diff / Oozing/crusting, Diff / PBI, Diff / PGIC AD, Diff / PGIC ITCH, Diff / SCORAD Total, Diff / Skin dryness, Diff / Sleep Disturbance, Diff / Subjective SCORAD, Diff / VRS, Diff / Worst Itch NRS Day, Diff / Worst Itch NRS Night, Diff / Worst Itch NRS, Diff / edema/Papules, Diff / worst Itch VAS >= 30, Diff / worst Itch VAS, Diff / worst ItchVAS >= 40, Diff / EASI 75, Diff / SCORAD 50, Diff: Diff tradipitant vs placebo; for Average Itch NRS / Average Itch VAS / EASI / Log EASI / Objective SCORAD / SCORAD Total / Sleep Disturbance / Subjective SCORAD / VRS / Worst Itch NRS / Worst Itch NRS Day / Worst Itch NRS Night / worst Itch VAS: week 8, vs baseline; for worst Itch VAS >= 30 / worst ItchVAS >= 40: Fisher; for Erythema / Excoriations / Extension / Intensity / Lichenification / Oozing/crusting / Skin dryness / edema/Papules: objective SCORAD parameter; for Insomnia / Itch: subjective SCORAD parameter
Method: In the study described above in Example 3, an exploratory analysis is conducted to analyze Immunoglobulin E (IgE) levels and the effect of treatment with tradipitant on atopic dermatitis and pruritus. For purposes of the analysis, study participants having an IgE level greater than or equal to 100 kU/L are deemed to have a high IgE level, while study participants having an IgE level of less than 100 kU/L are deemed to have a low IgE level. The baseline mean and range SCORAD total for each of the total study population, the high IgE group, and the low IgE group are shown below in Table 5.
The mean and range of SCORAD totals shown in Table 5 illustrate that the study population spans different strata of disease severity, from mild to severe. Table 5 also illustrates the similarity in disease severity between the high IgE and low IgE groups. Table 6 (below) presents the study results of tradipitant in treatment-resistant pruritus associated with atopic dermatitis in individuals having high baseline IgE levels (IgE≥100 kU/L), while Table 7 (below) presents the study results of tradipitant in treatment-resistant pruritus associated with atopic dermatitis in individuals having low baseline IgE levels (IgE<100 kU/L). The data in Tables 6-7 represent a separation by IgE level of the data appearing in Table 4 above.
For purposes of the present analysis, individuals having an IgE level greater than or equal to 100 kU/L are considered to have high IgE levels, while individuals having an IgE level of less than 100 kU/L are considered to have low IgE levels.

[1] = high baseline IgE (≥100 kU/L), week 8
[2] = high baseline IgE (≥100 kU/L), week 8, LOCF
[3] = low baseline IgE (<100 kU/L), week 8
[4] = low baseline IgE (<100 kU/L), week 8, LOCF
[5] = high baseline IgE (≥100 kU/L), ITT, week 8
[6] = high baseline IgE (≥100 kU/L), ITT
[7] = high baseline IgE (≥100 kU/L), ITT, week 8, LOCF
[8] = low baseline IgE (<100 kU/L), ITT, week 8
[9] = low baseline IgE (<100 kU/L), ITT
[10] = low baseline IgE (<100 kU/L), ITT, week 8, LOCF

Question: For `O=C(c1ccccc1Cl)c1cccnc1-c1nnn(Cc2cc(C(F)(F)F)cc(C(F)(F)F)c2)c1-c1ccncc1` [Tradipitant], which “Average Itch NRS, Diff” value [1] is on record?
Answer: −1.6

Question: What about the “Average Itch VAS, Diff” value [1] of the same compound?
Answer: −14.97

Question: What about the “CGIC, Diff” value [1] of the same compound?
Answer: −0.96

Question: What about the “EASI, Diff” value [1] of the same compound?
Answer: −1.13

Question: And the “Erythema, Diff” value [1]?
Answer: −0.15

Question: And the “Excoriations, Diff” value [1]?
Answer: −0.56

Question: And the “Extension, Diff” value [1]?
Answer: −0.72

Question: What about the “Insomnia, Diff” value [1] of the same compound?
Answer: −1.12

Question: What about the “Intensity, Diff” value [1] of the same compound?
Answer: −1.75

Question: And the “Itch, Diff” value [1]?
Answer: −2.04

Question: What about the “Lichenification, Diff” value [1] of the same compound?
Answer: −0.27

Question: And the “Log EASI, Diff” value [1]?
Answer: −0.46

Question: And the “Objective SCORAD, Diff” value [1]?
Answer: −6.4

Question: What about the “Oozing/crusting, Diff” value [1] of the same compound?
Answer: −0.23

Question: And the “PBI, Diff” value [1]?
Answer: 0.67

Question: And the “PGIC AD, Diff” value [1]?
Answer: −0.91

Question: And the “PGIC ITCH, Diff” value [1]?
Answer: −0.82

Question: What about the “SCORAD Total, Diff” value [1] of the same compound?
Answer: −9.9

Question: And the “Skin dryness, Diff” value [1]?
Answer: −0.27

Question: What about the “Sleep Disturbance, Diff” value [1] of the same compound?
Answer: −1.7

Question: What about the “Subjective SCORAD, Diff” value [1] of the same compound?
Answer: −3.1

Question: What about the “VRS, Diff” value [1] of the same compound?
Answer: −0.5597

Question: What about the “Worst Itch NRS Day, Diff” value [1] of the same compound?
Answer: −2.06

Question: And the “Worst Itch NRS Night, Diff” value [1]?
Answer: −2.14

Question: What about the “Worst Itch NRS, Diff” value [1] of the same compound?
Answer: −2.1

Question: What about the “edema/Papules, Diff” value [1] of the same compound?
Answer: −0.39

Question: What about the “worst Itch VAS >= 30, Diff” value [1] of the same compound?
Answer: 36.3%

Question: And the “worst Itch VAS, Diff” value [1]?
Answer: −25.7

Question: And the “worst ItchVAS >= 40, Diff” value [1]?
Answer: 28.4%

Question: And the “EASI 75, Diff” value [2]?
Answer: 18.3%

Question: What about the “SCORAD 50, Diff” value [2] of the same compound?
Answer: 36.6%

Question: What about the “Average Itch NRS, Diff” value [3] of the same compound?
Answer: 0.4

Question: And the “Average Itch VAS, Diff” value [3]?
Answer: 6.8

Question: What about the “CGIC, Diff” value [3] of the same compound?
Answer: −0.3

Question: And the “EASI, Diff” value [3]?
Answer: −0.47

Question: What about the “Erythema, Diff” value [3] of the same compound?
Answer: −0.31

Question: What about the “Excoriations, Diff” value [3] of the same compound?
Answer: −0.24

Question: What about the “Extension, Diff” value [3] of the same compound?
Answer: −0.94

Question: And the “Insomnia, Diff” value [3]?
Answer: 0.29

Question: And the “Intensity, Diff” value [3]?
Answer: −0.99

Question: And the “Itch, Diff” value [3]?
Answer: 0.13

Question: What about the “Lichenification, Diff” value [3] of the same compound?
Answer: −0.03

Question: What about the “Log EASI, Diff” value [3] of the same compound?
Answer: −0.21

Question: What about the “Objective SCORAD, Diff” value [3] of the same compound?
Answer: −3.7

Question: What about the “Oozing/crusting, Diff” value [3] of the same compound?
Answer: −0.18

Question: What about the “PBI, Diff” value [3] of the same compound?
Answer: 0.5

Question: And the “PGIC AD, Diff” value [3]?
Answer: −0.6

Question: What about the “PGIC ITCH, Diff” value [3] of the same compound?
Answer: −0.48

Question: And the “SCORAD Total, Diff” value [3]?
Answer: −2.8

Question: What about the “Skin dryness, Diff” value [3] of the same compound?
Answer: −0.40

Question: What about the “Sleep Disturbance, Diff” value [3] of the same compound?
Answer: 0.2

Question: What about the “Subjective SCORAD, Diff” value [3] of the same compound?
Answer: 0.43

Question: And the “VRS, Diff” value [3]?
Answer: −0.23

Question: And the “Worst Itch NRS Day, Diff” value [3]?
Answer: 0.43

Question: And the “Worst Itch NRS Night, Diff” value [3]?
Answer: 0.08

Question: And the “Worst Itch NRS, Diff” value [3]?
Answer: 0.3

Question: And the “edema/Papules, Diff” value [3]?
Answer: 0.08

Question: And the “worst Itch VAS >= 30, Diff” value [3]?
Answer: −3.2%

Question: What about the “worst Itch VAS, Diff” value [3] of the same compound?
Answer: −0.9

Question: And the “worst ItchVAS >= 40, Diff” value [3]?
Answer: 5.6%

Question: What about the “EASI 75, Diff” value [4] of the same compound?
Answer: 1.8%

Question: What about the “SCORAD 50, Diff” value [4] of the same compound?
Answer: 7.7%

Question: And the CGIC [5]?
Answer: 2.6

Question: And the PBI [5]?
Answer: 1.7

Question: What about the “PGIC AD” value [5] of the same compound?
Answer: 3.0

Question: What about the “PGIC ITCH” value [5] of the same compound?
Answer: 2.7

Question: What about the “Average Itch NRS” value [6] of the same compound?
Answer: −3.4

Question: And the “Average Itch VAS” value [6]?
Answer: −41.9

Question: What about the EASI [6] of the same compound?
Answer: −3.78

Question: And the “Log EASI” value [6]?
Answer: −0.8

Question: And the “Objective SCORAD” value [6]?
Answer: −11.7

Question: What about the “SCORAD Total” value [6] of the same compound?
Answer: −20.3

Question: What about the “Sleep Disturbance” value [6] of the same compound?
Answer: −3.5

Question: What about the “Subjective SCORAD” value [6] of the same compound?
Answer: −8.7

Question: What about the VRS [6] of the same compound?
Answer: −1.529

Question: And the “Worst Itch NRS” value [6]?
Answer: −3.6

Question: And the “Worst Itch NRS Day” value [6]?
Answer: −3.7

Question: What about the “Worst Itch NRS Night” value [6] of the same compound?
Answer: −3.8

Question: What about the “worst Itch VAS” value [6] of the same compound?
Answer: −43.9

Question: What about the “worst Itch VAS >= 30” value [5] of the same compound?
Answer: 57.9%

Question: What about the “worst ItchVAS >= 40” value [5] of the same compound?
Answer: 50.0%

Question: What about the “EASI 75” value [7] of the same compound?
Answer: 23.7%

Question: What about the “SCORAD 50 (patients with at least a 50 percent reduction of SCORAD)” value [7] of the same compound?
Answer: 47.4%

Question: And the “SCORAD 50 (patients with at least a 50 percent reduction of SCORAD)” value (high baseline IgE (≥100 kU/L), ITT, week 8, LOCF, listed as tradipitant)?
Answer: 47%

Question: And the CGIC [8]?
Answer: 2.7

Question: What about the PBI [8] of the same compound?
Answer: 1.98

Question: What about the “PGIC AD” value [8] of the same compound?
Answer: 2.4

Question: And the “PGIC ITCH” value [8]?
Answer: 2.3

Question: What about the “Average Itch NRS” value [9] of the same compound?
Answer: −2.9

Question: And the “Average Itch VAS” value [9]?
Answer: −39.3

Question: What about the EASI [9] of the same compound?
Answer: −2.7

Question: And the “Log EASI” value [9]?
Answer: −0.67

Question: What about the “Objective SCORAD” value [9] of the same compound?
Answer: −13.1

Question: What about the “SCORAD Total” value [9] of the same compound?
Answer: −19.9

Question: And the “Sleep Disturbance” value [9]?
Answer: −3.0

Question: And the “Subjective SCORAD” value [9]?
Answer: −7.2

Question: And the VRS [9]?
Answer: −1.54

Question: And the “Worst Itch NRS” value [9]?
Answer: −2.9

Question: What about the “Worst Itch NRS Day” value [9] of the same compound?
Answer: −2.9

Question: And the “Worst Itch NRS Night” value [9]?
Answer: −3.0

Question: And the “worst Itch VAS” value [9]?
Answer: −44

Question: And the “worst Itch VAS >= 30” value [8]?
Answer: 55.6%

Question: And the “worst ItchVAS >= 40” value [8]?
Answer: 55.6%

Question: What about the “EASI 75” value [10] of the same compound?
Answer: 19.4%

Question: What about the “SCORAD 50” value [10] of the same compound?
Answer: 40.0%

Question: And the Erythema [5]?
Answer: −0.46

Question: And the Excoriations [5]?
Answer: −0.80

Question: What about the Extension [5] of the same compound?
Answer: −2.4

Question: And the Intensity [5]?
Answer: −3.2

Question: What about the Lichenification [5] of the same compound?
Answer: −0.42

Question: What about the Oozing/crusting [5] of the same compound?
Answer: −0.53

Question: And the Skin dryness [5]?
Answer: −0.62

Question: What about the edema/Papules [5] of the same compound?
Answer: −0.62

Question: What about the Erythema [8] of the same compound?
Answer: −0.74

Question: What about the Excoriations [8] of the same compound?
Answer: −0.74

Question: And the Extension [8]?
Answer: −1.9

Question: What about the Intensity [8] of the same compound?
Answer: −3.6

Question: And the Lichenification [8]?
Answer: −0.49

Question: What about the Oozing/crusting [8] of the same compound?
Answer: −0.61

Question: What about the Skin dryness [8] of the same compound?
Answer: −0.73

Question: And the edema/Papules [8]?
Answer: −0.43

Question: And the “treatment effect in itch and disease severity, high IgE group compared to low IgE group” value (regardless of IgE cutoff (50 to 300 kU/L))?
Answer: consistently stronger treatment effect

Question: What about the Insomnia [5] of the same compound?
Answer: −4.0

Question: What about the Itch [5] of the same compound?
Answer: −4.7

Question: What about the Insomnia [8] of the same compound?
Answer: −3.2

Question: And the Itch [8]?
Answer: −4.0
